Tested on: 958767-090-R-J1-PDC spheroid growth
Test: Anticancer human tumor 958767-090-R-J1-PDC patient-derived head and neck squamous carcinoma cell line growth inhibition [IpAb]
Conditions: spheroids with HUVEC and MSC; for IC50: curve of first compound; for viability, T/C: stronger effect = lower value; active = viability on the fitted dose curve at most 10% of control; inactive = the rest
Excerpt: Combinatorial screen of targeted agents with ipatasertib and abemaciclib in multi-cell type tumor spheroids
A high-throughput screen of multi-cell type tumor spheroids was designed to identify active combinations of targeted small molecules and ipatasertib or abemaciclib. Complex spheroids include a stromal component modeled by human endothelial cells (HUVEC) and fibroblasts modeled by human mesenchymal stem cells (MSCs). The concentration ranges selected for each drug and investigational agent were based upon clinically achievable concentrations if the clinical Cmax of the agent was known.
Compounds. The drugs and investigational agents: ipatasertib (NSC767898), abemaciclib(NSC768073), selumetinib (NSC741078), trametinib (758246), adavosertib (NSC754352), everolimus (NSC733504), sapanisertib (NSC764658), vemurafenib (NSC761431), venetoclax (NSC766270), copanlisib (NSC809693), apelisib (NSC765974), palbociblib (NSC758247), vemurafenib (NSC761431), dabrafenib (NSC764134), ravoxertinib (NSC781343), BMS-387032 (NSC767048), sotorasib (NSC818433), talazoparib (NSC767125) and afursertib (NSC778305), were obtained from the National Cancer Institute (NCI) Developmental Therapeutics Program Chemical Repository. The FDA-approved anticancer drug set is available from the NCI Developmental Therapeutics Program. […] The stock solutions were prepared in dimethyl sulfoxide (DMSO, Sigma-Aldrich, St. Louis, MO, cat. D2650) at 800-fold the tested concentration and stored at -70 degrees C prior to their use. All drugs and investigational agents were tested over a range starting from a high concentration at or near the clinical Cmax and decreasing in half-log increments. If the clinical Cmax for an agent had not been determined, the highest concentration tested was 10 microM.
NCI60 Cell Culture. NCI60 cell lines were obtained from the NCI Developmental Therapeutics Program Tumor Repository. For each lot of cells, the Repository performed Applied Biosystems AmpFLSTR Identifiler testing with PCR amplification to confirm consistency with the published Identifier STR profile for each cell line. Cells were kept in continuous culture for no more than 20 passages. The optimal seeding densities for each of the cell lines at each time point assessed were determined prior to performing the concentration response studies. Briefly, the NCI60 human tumor lines were grown as monolayers in RPMI 1640 medium supplemented with 10% FBS and 2 mmol/L L-glutamine.
An additional 9 lines were from the NCI60 cell line panel including MDA-MB-231 breast carcinoma, MDA-MB-468 breast carcinoma, MCF7 breast carcinoma, Hs578T breast carcinoma, MALME-3M melanoma, SK-MEL-2 melanoma, SK-OV-3 ovarian carcinoma, DU-145 prostate carcinoma, PC-3 prostate carcinoma, all cell lines along with major genetic alterations are listed on Table 2. Pooled donor human umbilical vein endothelial cells (HUVEC, Lonza, cat. CC-2519) and human mesenchymal stem cells (hMSC, Lonza, cat. PT-2501) were purchased from Lonza (Walkersville, MD).
PDMR cell lines were grown in complete medium (DC medium): Dulbecco's modified Eagle's medium (DMEM)/F12 supplemented with 5% fetal bovine serum (FBS), 2 mM L-glutamine, 100 U/mL penicillin and 100 µg/ml streptomycin, 0.4 µg/ml hydrocortisone, 10 ng/ml epidermal growth factor (EGF) recombinant human protein, 24 µg/mL adenine, and 0.1 mg/mL primocin. During culture from frozen stock vials, PDMR cells were cultured in the same medium containing 10 µM Y-27632 (see Table 3). The PDCs were cultured in complete DMEM/F12 media without 10 microM Y-27632 dihydrochloride for at least two passages prior to the screen. The pooled donor HUVEC and hMSC were cultured in endothelial cell growth medium 2 (PromoCell, Heidelberg, Germany, cat. C-22011) and mesenchymal stem cell growth medium 2 (PromoCell, cat. C-28009), respectively. For all experiments, HUVEC and hMSC were used at passages </=5.
[…]
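Also: spheroids exposed to agents for 7 days.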
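For viability, T/C in this document: 100% = DMSO vehicle control wells.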

C=CCn1c(=O)c2cnc(Nc3ccc(N4CCN(C)CC4)cc3)nc2n1-c1cccc(C(C)(C)O)n1 + CC(C)NCC(C(=O)N1CCN(c2ncnc3c2C(C)CC3O)CC1)c1ccc(Cl)cc1
85 nM: IC50 (second compound 0.316 µM)
< 31.6 nM: IC50 (second compound 10 µM)
179 nM: IC50 (second compound 0.1 µM)
inactive: viability, T/C (second compound 0.1 µM, first compound 0.0316 µM) 88.2% | viability, T/C (second compound 0.1 µM, first compound 0.1 µM) 65% | viability, T/C (second compound 0.1 µM, first compound 0.316 µM) 35% | viability, T/C (second compound 0.1 µM, first compound 1 µM) 25% | viability, T/C (second compound 0.1 µM, first compound 3.16 µM) 23.7% | viability, T/C (second compound 0.1 µM, first compound 10 µM) 19.6% | viability, T/C (second compound 0.316 µM, first compound 0.0316 µM) 64.1% | viability, T/C (second compound 0.316 µM, first compound 0.1 µM) 47.7% | viability, T/C (second compound 0.316 µM, first compound 0.316 µM) 24.2% | viability, T/C (second compound 0.316 µM, first compound 1 µM) 17% | viability, T/C (second compound 0.316 µM, first compound 3.16 µM) 17.8% | viability, T/C (second compound 0.316 µM, first compound 10 µM) 15.2% | viability, T/C (second compound 1 µM, first compound 0.0316 µM) 52.1% | viability, T/C (second compound 1 µM, first compound 0.1 µM) 45.4% | viability, T/C (second compound 1 µM, first compound 0.316 µM) 23.5% | viability, T/C (second compound 1 µM, first compound 1 µM) 15.6% | viability, T/C (second compound 1 µM, first compound 3.16 µM) 16.9% | viability, T/C (second compound 1 µM, first compound 10 µM) 13% | viability, T/C (second compound 3.16 µM, first compound 0.0316 µM) 55% | viability, T/C (second compound 3.16 µM, first compound 0.1 µM) 39.6% | viability, T/C (second compound 3.16 µM, first compound 0.316 µM) 22.2% | viability, T/C (second compound 3.16 µM, first compound 1 µM) 16.2% | viability, T/C (second compound 3.16 µM, first compound 3.16 µM) 14.8% | viability, T/C (second compound 3.16 µM, first compound 10 µM) 11.9% | viability, T/C (second compound 10 µM, first compound 0.0316 µM) 39.1% | viability, T/C (second compound 10 µM, first compound 0.1 µM) 32.4% | viability, T/C (second compound 10 µM, first compound 0.316 µM) 17.9% | viability, T/C (second compound 10 µM, first compound 1 µM) 13.9% | viability, T/C (second compound 10 µM, first compound 3.16 µM) 13.6%
45.9 nM: IC50 (second compound 3.16 µM)
45.5 nM: IC50 (second compound 1 µM)
active: viability, T/C (second compound 10 µM, first compound 10 µM) 7.78%

Cn1cnc2c(F)c(Nc3ccc(Br)cc3Cl)c(C(=O)NOCCO)cc21 + CC(C)NCC(C(=O)N1CCN(c2ncnc3c2C(C)CC3O)CC1)c1ccc(Cl)cc1
inactive: viability, T/C (second compound 0.1 µM, first compound 0.00949 µM) 62% | viability, T/C (second compound 0.1 µM, first compound 0.03 µM) 38.9% | viability, T/C (second compound 0.1 µM, first compound 0.0949 µM) 30.5% | viability, T/C (second compound 0.1 µM, first compound 0.3 µM) 20.8% | viability, T/C (second compound 0.1 µM, first compound 0.949 µM) 17.7% | viability, T/C (second compound 0.1 µM, first compound 3 µM) 9.06% | viability, T/C (second compound 0.316 µM, first compound 0.00949 µM) 36% | viability, T/C (second compound 0.316 µM, first compound 0.03 µM) 26.8% | viability, T/C (second compound 0.316 µM, first compound 0.0949 µM) 19.2% | viability, T/C (second compound 0.316 µM, first compound 0.3 µM) 14.3% | viability, T/C (second compound 1 µM, first compound 0.00949 µM) 28.1% | viability, T/C (second compound 1 µM, first compound 0.03 µM) 21.7% | viability, T/C (second compound 1 µM, first compound 0.0949 µM) 15.2% | viability, T/C (second compound 3.16 µM, first compound 0.00949 µM) 30.4% | viability, T/C (second compound 3.16 µM, first compound 0.03 µM) 18.6% | viability, T/C (second compound 3.16 µM, first compound 0.0949 µM) 10.1% | viability, T/C (second compound 10 µM, first compound 0.00949 µM) 21.7%
active: viability, T/C (second compound 0.316 µM, first compound 0.949 µM) 9.47% | viability, T/C (second compound 0.316 µM, first compound 3 µM) 3.29% | viability, T/C (second compound 1 µM, first compound 0.3 µM) 10.1% | viability, T/C (second compound 1 µM, first compound 0.949 µM) 4.39% | viability, T/C (second compound 1 µM, first compound 3 µM) 1.34% | viability, T/C (second compound 3.16 µM, first compound 0.3 µM) 6.15% | viability, T/C (second compound 3.16 µM, first compound 0.949 µM) 1.7% | viability, T/C (second compound 3.16 µM, first compound 3 µM) 0.65% | viability, T/C (second compound 10 µM, first compound 0.03 µM) 9.62% | viability, T/C (second compound 10 µM, first compound 0.0949 µM) 4.16% | viability, T/C (second compound 10 µM, first compound 0.3 µM) 1.43% | viability, T/C (second compound 10 µM, first compound 0.949 µM) 0.55% | viability, T/C (second compound 10 µM, first compound 3 µM) 0.67%
18.2 nM: IC50 (second compound 0.1 µM)
< 9.49 nM: IC50 (second compound 0.316 µM) | IC50 (second compound 1 µM) | IC50 (second compound 3.16 µM) | IC50 (second compound 10 µM)

Reference: PubChem BioAssay AID2060336 (Molecular Pharmacology Branch, DTP, NCI, 2025)
